A word on the IC50: it is the midpoint of a concentration-inhibition curve.

Each structure is given as a SMILES string.

IC50 data for 24 compounds are collected here from US20080221086A1, “Novel Inhibitors of Glutaminyl Cyclase” (PROBIODRUG AG, priority 2006, published 2008).

Sequence of hQC (Q16769 29-361): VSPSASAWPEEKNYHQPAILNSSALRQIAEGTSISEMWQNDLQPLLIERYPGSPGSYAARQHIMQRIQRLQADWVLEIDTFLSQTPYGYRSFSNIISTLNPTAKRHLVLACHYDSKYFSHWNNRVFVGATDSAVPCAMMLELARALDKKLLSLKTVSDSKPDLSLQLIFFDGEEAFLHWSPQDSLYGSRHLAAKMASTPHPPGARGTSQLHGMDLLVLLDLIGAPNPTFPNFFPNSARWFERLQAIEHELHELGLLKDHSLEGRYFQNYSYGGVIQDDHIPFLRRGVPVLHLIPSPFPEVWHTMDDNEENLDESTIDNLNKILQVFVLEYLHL

For the assay, the target named is hQC (Homo sapiens, UniProt Q16769). Kind of assay: Fluorometric assay of glutaminyl cyclase (QC) inhibition, H-Gln-βNA or H-Gln-AMC substrate. It counts as biochemical. Conditions: read-out: IC50. Summed up:
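Ki values were obtained by fitting progress curves to a competitive-inhibition equation, and the rapid screen used 4 mM inhibitor with substrate at 1 KM. Both readouts coupled pyroglutamyl aminopeptidase at pH 8.0 and 30° C: H-Gln-βNA at 0.2 mM (ex/em 320/410 nm) or H-Gln-AMC (380/460 nm).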
Turning to `OC1CCCCC1N=C1NC(=S)N(c2ccc3[nH]cnc3c2)C1c1ccc2nsnc2c1` (stereo not drawn) [Compound 312, 1-(1H-Benzoimidazol-5-yl)-5-benzo[c][1,2,5]thiadiazol-5-yl-4-2-hydroxy-cyclohexylimino-imidazolidine-2-thione], the IC50 was 9.4 µM.

Regarding `Cc1ccc2occ(C3/C(=N/C4CCCCC4O)NC(=O)N3c3ccc4[nH]cnc4c3)c(=O)c2c1` (stereo not drawn) [Compound 127, 1-(1H-Benzoimidazol-5-yl)-4-2-hydroxy-cyclohexylimino-5-(6-methyl-4-oxo-4H-chromen-3-yl)-imidazolidin-2-one], the IC50 came to 4 µM.

On to `Cc1ccc(C2/C(=N/C(C)(C)CC(C)(C)C)NC(=S)N2c2ccc3nc[nH]c3c2)c(C)c1` (stereo not drawn) [Compound 332, 1-(3H-Benzoimidazol-5-yl)-5-(2,4-dimethyl-phenyl)-4-1,1,3,3-tetramethyl-butylimino-imidazolidine-2-thione], for which the IC50 is 9.4 µM.

On to `O=C(C/N=C1/NC(=O)N(CCCn2ccnc2)C1c1ccc(O)cc1)N1CCc2ccccc2C1` (stereo not drawn) [Compound 79, 4-2-(3,4-Dihydro-1H-isoquinolin-2-yl)-2-oxo-ethylimino-5-(4-hydroxy-phenyl)-1-(3-imidazol-1-yl-propyl)-imidazolidin-2-one], for which the half-maximal inhibitory concentration (IC50) is 3.1 µM.

Turning to `S=C1N/C(=N/Cn2nnc3ccccc32)C(c2ccc3ccccc3c2)N1c1ccc2[nH]cnc2c1` (stereo not drawn) [Compound 309, 1-(1H-Benzoimidazol-5-yl)-4-benzotriazol-1-ylmethylimino-5-naphthalen-2-yl-imidazolidine-2-thione], the IC50 is 1.3 µM.

Consider `O=C1N/C(=N/CCc2cccs2)C(c2ccc(Cl)c(F)c2)N1CCCn1ccnc1` (stereo not drawn) [Compound 42, 5-(4-Chloro-3-fluoro-phenyl)-1-(3-imidazol-1-yl-propyl)-4-2-thiophen-2-yl-ethylimino-imidazolidin-2-one], for which the IC50 was 5.8 µM.

For the compound `S=C1N/C(=N\C2CCCc3ccccc32)C(c2ccccc2Cl)N1c1ccc2[nH]cnc2c1` (stereo not drawn) [Compound 278, 1-(1H-Benzoimidazol-5-yl)-5-(2-chloro-phenyl)-4-1,2,3,4-tetrahydro-napthalen-1-ylimino-imidazolidine-2-thione], the concentration for half-maximal inhibition (IC50) stood at 6.7 µM.

In the case of `CN1CCCN(C(=O)C/N=C2/NC(=O)N(c3ccc4[nH]cnc4c3)C2c2ccc3[nH]ccc3c2)CC1` (stereo not drawn) [Compound 307, 1-(1H-Benzoimidazol-5-yl)-5-(1H-indol-5-yl)-4-2-(4-methyl-1,4diazepan-1-yl)-2-oxo-ethylimino-imidazolidin-2-one], the IC50 came to 2.2 µM.

On to `O=C1N/C(=N\CCC(c2ccccc2)c2ccccc2)C(c2cccc(F)c2)N1CCCn1ccnc1` (stereo not drawn) [Compound 113, 4-3,3-Diphenyl-propylimino-5-(3-fluoro-phenyl)-1-(3-imidazol-1-yl-propyl)-imidazolidin-2-one], for which the IC50 worked out at 7.6 µM.

Take `O=C(C/N=C1/NC(=O)N(c2ccc3nc[nH]c3c2)C1c1ccc2[nH]ccc2c1)N1CCC(O)CC1` (stereo not drawn) [Compound 248, 1-(3H-Benzoimidazol-5-yl)-4-2-(4-hydroxy-piperidin-1-yl)-2-oxo-ethylimino-5-(1H-indol-5-yl)-imidazolidin-2-one]: the IC50 is 0.4 µM.

Consider `S=C1N/C(=N\C2CCCc3ccccc32)C(c2cccc(Br)c2)N1c1ccc2[nH]cnc2c1` (stereo not drawn) [Compound 161, 1-(1H-Benzoimidazol-5-yl)-5-(3-bromo-phenyl)-4-1,2,3,4-tetrahydro-naphthalen-1-ylimino-imidazolidine-2-thione], for which the IC50 is 5.8 µM.

Take `CCCCC1/C(=N/C(c2ccccc2)c2ccccc2)NC(=O)N1CCCn1ccnc1` (stereo not drawn) [Compound 86, 4-Benzhydrylimino-5-butyl-1-(3-imidazol-1-yl-propyl)-imidazolidin-2-one]: the IC50 is 5.8 µM.

As to `Cc1ccc(C2/C(=N\Cc3ccc4[nH]ccc4c3)NC(=O)N2c2ccc3[nH]cnc3c2)cc1` (stereo not drawn) [Compound 170, 1-(1H-Benzoimidazol-5-yl)-4-1H-indol-5-ylmethylimino-5-p-tolyl-imidazolidin-2-one], the IC50 is 0.004 µM.

In the case of `CN(C)CCCN=C1NC(=O)N(c2ccc3[nH]cnc3c2)C1c1ccc2ccccc2c1` (stereo not drawn) [Compound 157, 1-(1H-Benzoimidazol-5-yl)-4-3-dimethylamino-propylimino-5-naphthalen-2-yl-imidazolidin-2-one], the half-maximal inhibitory concentration (IC50) worked out at 5.8 µM.

For the compound `O=C(C/N=C1/NC(=O)N(CCCn2ccnc2)C1c1ccc(Cl)c(F)c1)N1CCc2ccccc2C1` (stereo not drawn) [Compound 70, 5-(4-Chloro-3-fluoro-phenyl)-4-2-(3,4-dihydro-1H-isoquinolin-2-yl)-2-oxo-ethylimino-1-(3-imidazol-1-yl-propyl)-imidazolidin-2-one], the IC50 was 3.1 µM.

Consider `O=C1N/C(=N/CCCN2CCOCC2)C(c2ccc3[nH]ccc3c2)N1c1ccc2[nH]cnc2c1` (stereo not drawn) [Compound 163, 1-(1H-Benzoimidazol-5-yl)-5-(1H-indol-5-yl)-4-3-morpholin-4-yl-propylimino-imidazolidin-2-one], for which the IC50 is 0.004 µM.

`O=C1N/C(=N/CCc2c[nH]c3ccccc23)C(c2ccc(O)cc2)N1CCCn1ccnc1` (stereo not drawn) [Compound 64, 5-(4-Hydroxy-phenyl)-1-(3-imidazol-1-yl-propyl)-4-2-(1H-indol-3-yl)-ethylimino-imidazolidin-2-one]: the IC50 was found to be 1.3 µM.

Take `O=C1NC(=NC2CCCc3ccccc32)C(c2ccccc2Cl)N1c1ccc2[nH]cnc2c1` (stereo not drawn) [Compound 190, 1-(1H-Benzoimidazol-5-yl)-5-(2-chloro-phenyl)-4-1,2,3,4-tetrahydro-naphthalen-1-ylimino-imidazolidin-2-one]: the IC50 turned out to be 0.4 µM.

For `O=C1CCCN1CCC/N=C1/NC(=O)N(c2ccc3nc[nH]c3c2)C1c1ccc(Br)cc1` (stereo not drawn) [Compound 321, 1-(3H-Benzoimidazol-5-yl)-5-(4-bromo-phenyl)-4-3-(2-oxo-pyrrolidin-1-yl)-propylimino-imidazolidin-2-one], the IC50 came out at 0.004 µM.

Turning to `COC(=O)C(C)N=C1NC(=O)N(c2ccc3[nH]cnc3c2)C1c1c(F)cc(Cl)cc1F` (stereo not drawn) [Compound 290, Methyl 2-(1-(1H-benzo[d]imidazol-5-yl)-5-(4-chloro-2,6-difluorophenyl)-2-oxoimidazolidin-4-ylideneamino)propanoate], the IC50 was 0.4 µM.

For `CC1=CC(C)C(C2/C(=N/c3ccccc3Br)NC(=S)N2c2ccc3[nH]cnc3c2)CC1` (stereo not drawn) [Compound 300, 1-(1H-Benzoimidazol-5-yl)-4-2-bromo-phenylimino-5-(2,4-dimethyl-cyclohex-3-enyl)-imidazolidine-2-thione], the IC50 was 9.4 µM.

With `CCCCC1/C(=N\CC(=O)N2CCc3ccccc3C2)NC(=O)N1CCCn1ccnc1` (stereo not drawn) [Compound 74, 5-Butyl-4-2-(3,4-dihydro-1H-isoquinolin-2-yl)-2-oxo-ethylimino-1-(3-imidazol-1-yl-propyl)-imidazolidin-2-one], the IC50 came to 7.6 µM.

Turning to `O=C1N/C(=N/Cc2cccnc2)C(c2cccc(F)c2)N1CCCn1ccnc1` (stereo not drawn) [Compound 91, 5-(3-Fluoro-phenyl)-1-(3-imidazol-1-yl-propyl)-4-pyridin-3-ylmethylimino-imidazolidin-2-one], the IC50 is 8.5 µM.

As to `O=C1NC(=NCC2CCCO2)C(c2cc(F)cc(F)c2)N1CCCn1ccnc1` (stereo not drawn) [Compound 115, 5-(3,5-Difluoro-phenyl)-1-(3-imidazol-1-yl-propyl)-4-tetrahydro-furan-2-ylmethylimino-imidazolidin-2-one], the IC50 came to 7.6 µM.
